Data: publication PMC3961306, “Comparison of the Cancer Gene Targeting and Biochemical Selectivities of All Targeted Kinase Inhibitors Approved for Clinical Use” (PLoS ONE, 2014)

Legend:
Test in all cases: Kinase profiling in a biochemical assay panel (mobility shift assays and ELISA), %-inhibition at 1 μM; selectivity entropy
[1] = target: panel of more than 300 wild-type and mutant kinases (313 kinase panel) (Homo sapiens, UniProt P04629); conditions: kinase TRKA; 1 μM
[2] = target: panel of more than 300 wild-type and mutant kinases (313 kinase panel) (Homo sapiens, UniProt Q13164); conditions: kinase Erk5; compound at 1 μM
[3] = target: T1, panel of more than 300 wild-type and mutant kinases (313 kinase panel) (Homo sapiens, UniProt Q9NWZ3)
T1 sequence (Q9NWZ3 1-460): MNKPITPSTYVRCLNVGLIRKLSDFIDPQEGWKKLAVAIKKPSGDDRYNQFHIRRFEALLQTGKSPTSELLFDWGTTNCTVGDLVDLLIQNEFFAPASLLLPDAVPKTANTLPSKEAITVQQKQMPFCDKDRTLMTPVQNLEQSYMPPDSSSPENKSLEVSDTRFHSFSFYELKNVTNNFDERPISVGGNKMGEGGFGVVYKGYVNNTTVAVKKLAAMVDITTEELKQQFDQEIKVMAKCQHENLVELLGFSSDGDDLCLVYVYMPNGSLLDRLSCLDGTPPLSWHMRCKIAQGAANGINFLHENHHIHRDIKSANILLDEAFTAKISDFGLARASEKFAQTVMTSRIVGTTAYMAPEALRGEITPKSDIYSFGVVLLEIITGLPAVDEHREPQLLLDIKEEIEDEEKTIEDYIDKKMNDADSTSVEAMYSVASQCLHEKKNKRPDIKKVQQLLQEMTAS

[4] = target: panel of more than 300 wild-type and mutant kinases (313 kinase panel) (Homo sapiens, UniProt Q04912); conditions: kinase RON; 1 μM
[5] = target: panel of more than 300 wild-type and mutant kinases (313 kinase panel) (Homo sapiens, UniProt P17948); conditions: kinase FLT1; compound at 1 μM
[6] = target: T2, panel of more than 300 wild-type and mutant kinases (313 kinase panel) (Homo sapiens, UniProt P21709); conditions: kinase EPHA1; compound at 1 μM
T2 sequence (P21709 26-976): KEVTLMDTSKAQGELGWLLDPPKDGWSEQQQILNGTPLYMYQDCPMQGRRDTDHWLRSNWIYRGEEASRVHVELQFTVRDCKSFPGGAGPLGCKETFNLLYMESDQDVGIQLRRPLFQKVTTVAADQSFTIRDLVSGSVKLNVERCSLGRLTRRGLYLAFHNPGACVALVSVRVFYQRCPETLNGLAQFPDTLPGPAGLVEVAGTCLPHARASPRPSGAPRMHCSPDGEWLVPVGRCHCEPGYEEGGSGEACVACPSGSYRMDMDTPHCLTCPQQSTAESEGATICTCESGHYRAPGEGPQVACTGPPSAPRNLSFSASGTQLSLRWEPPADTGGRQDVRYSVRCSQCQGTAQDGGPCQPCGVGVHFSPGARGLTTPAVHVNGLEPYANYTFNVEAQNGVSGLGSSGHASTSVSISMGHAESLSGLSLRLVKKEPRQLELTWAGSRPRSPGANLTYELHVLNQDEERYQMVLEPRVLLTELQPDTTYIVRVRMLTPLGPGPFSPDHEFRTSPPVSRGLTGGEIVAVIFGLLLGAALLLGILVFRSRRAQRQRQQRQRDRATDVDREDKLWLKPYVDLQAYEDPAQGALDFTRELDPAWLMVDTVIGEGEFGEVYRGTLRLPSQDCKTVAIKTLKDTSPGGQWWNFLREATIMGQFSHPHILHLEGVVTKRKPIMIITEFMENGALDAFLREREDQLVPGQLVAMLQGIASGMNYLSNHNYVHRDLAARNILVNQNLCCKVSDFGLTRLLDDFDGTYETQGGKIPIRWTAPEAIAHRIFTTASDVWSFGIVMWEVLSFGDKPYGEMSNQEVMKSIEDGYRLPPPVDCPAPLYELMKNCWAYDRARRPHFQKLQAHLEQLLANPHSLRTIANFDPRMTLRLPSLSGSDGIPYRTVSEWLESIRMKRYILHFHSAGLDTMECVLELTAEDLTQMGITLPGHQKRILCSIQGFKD

[7] = target: panel of more than 300 wild-type and mutant kinases (313 kinase panel) (Homo sapiens, UniProt Q13131); conditions: kinase AMPKα1/β1/γ1; 1 μM compound
[8] = target: panel of more than 300 wild-type and mutant kinases (313 kinase panel) (Homo sapiens, UniProt P16234); conditions: kinase PDGFRα; 1 μM
[9] = target: panel of more than 300 wild-type and mutant kinases (313 kinase panel) (Homo sapiens, UniProt P51812)
[10] = target: panel of more than 300 wild-type and mutant kinases (313 kinase panel) (Homo sapiens, UniProt Q9Y463); conditions: kinase DYRK1B; compound at 1 μM
[11] = target: panel of more than 300 wild-type and mutant kinases (313 kinase panel) (Homo sapiens, UniProt P07948); conditions: kinase LYNa; compound at 1 μM
[12] = target: panel of more than 300 wild-type and mutant kinases (313 kinase panel) (Homo sapiens, UniProt P54764); conditions: kinase EPHA4; compound at 1 μM
[13] = target: panel of more than 300 wild-type and mutant kinases (313 kinase panel) (Homo sapiens, UniProt P07949); conditions: kinase RET; 1 μM
Chain of panel of more than 300 wild-type and mutant kinases (313 kinase panel) (Homo sapiens, UniProt P07949) (P07949 29-1114, change not shown): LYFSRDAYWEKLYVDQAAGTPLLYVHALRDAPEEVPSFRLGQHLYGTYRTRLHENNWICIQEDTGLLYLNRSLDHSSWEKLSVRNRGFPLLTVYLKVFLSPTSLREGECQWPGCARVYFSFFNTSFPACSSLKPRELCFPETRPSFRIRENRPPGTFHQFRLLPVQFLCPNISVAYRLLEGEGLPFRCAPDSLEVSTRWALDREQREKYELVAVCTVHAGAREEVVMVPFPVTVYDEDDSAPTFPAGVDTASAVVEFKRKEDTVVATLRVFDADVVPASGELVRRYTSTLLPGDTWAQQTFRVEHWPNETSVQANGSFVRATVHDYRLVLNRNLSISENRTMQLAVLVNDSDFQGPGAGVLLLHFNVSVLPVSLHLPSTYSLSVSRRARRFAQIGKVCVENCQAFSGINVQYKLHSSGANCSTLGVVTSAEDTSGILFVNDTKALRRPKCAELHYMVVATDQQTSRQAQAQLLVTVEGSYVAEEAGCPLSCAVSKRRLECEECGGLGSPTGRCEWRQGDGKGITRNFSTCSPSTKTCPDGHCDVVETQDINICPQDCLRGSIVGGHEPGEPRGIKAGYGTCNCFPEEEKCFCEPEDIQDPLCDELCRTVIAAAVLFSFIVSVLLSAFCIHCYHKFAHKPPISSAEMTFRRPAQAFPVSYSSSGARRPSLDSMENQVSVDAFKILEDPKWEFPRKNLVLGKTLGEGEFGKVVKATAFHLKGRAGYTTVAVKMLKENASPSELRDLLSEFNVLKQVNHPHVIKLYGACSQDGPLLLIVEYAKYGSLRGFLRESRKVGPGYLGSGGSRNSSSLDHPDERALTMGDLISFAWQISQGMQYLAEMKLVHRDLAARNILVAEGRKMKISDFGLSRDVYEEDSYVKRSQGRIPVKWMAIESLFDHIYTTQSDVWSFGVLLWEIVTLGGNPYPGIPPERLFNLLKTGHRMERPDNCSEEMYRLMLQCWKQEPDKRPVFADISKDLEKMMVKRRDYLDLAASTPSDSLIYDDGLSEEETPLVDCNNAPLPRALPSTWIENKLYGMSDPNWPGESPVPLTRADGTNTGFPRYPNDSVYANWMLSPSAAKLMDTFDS

Chain of panel of more than 300 wild-type and mutant kinases (313 kinase panel) (Homo sapiens, UniProt Q13131) (Q13131 whole entry, change not shown): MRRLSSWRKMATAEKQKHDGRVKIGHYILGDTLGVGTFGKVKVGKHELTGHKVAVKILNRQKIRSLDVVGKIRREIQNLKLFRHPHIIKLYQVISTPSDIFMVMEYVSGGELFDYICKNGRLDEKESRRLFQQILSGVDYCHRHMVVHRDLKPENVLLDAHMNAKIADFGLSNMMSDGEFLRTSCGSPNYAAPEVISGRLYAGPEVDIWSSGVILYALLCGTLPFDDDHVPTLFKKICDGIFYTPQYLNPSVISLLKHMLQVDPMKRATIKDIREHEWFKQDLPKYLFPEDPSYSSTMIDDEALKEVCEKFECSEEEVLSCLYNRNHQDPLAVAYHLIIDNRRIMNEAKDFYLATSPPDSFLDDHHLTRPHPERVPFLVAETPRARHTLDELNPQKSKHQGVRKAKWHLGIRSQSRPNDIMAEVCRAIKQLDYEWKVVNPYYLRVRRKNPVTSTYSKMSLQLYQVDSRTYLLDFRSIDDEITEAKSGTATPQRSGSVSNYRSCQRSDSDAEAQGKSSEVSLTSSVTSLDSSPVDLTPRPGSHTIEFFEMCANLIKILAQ
Chain of panel of more than 300 wild-type and mutant kinases (313 kinase panel) (Homo sapiens, UniProt P16234) (P16234 24-1089, change not shown): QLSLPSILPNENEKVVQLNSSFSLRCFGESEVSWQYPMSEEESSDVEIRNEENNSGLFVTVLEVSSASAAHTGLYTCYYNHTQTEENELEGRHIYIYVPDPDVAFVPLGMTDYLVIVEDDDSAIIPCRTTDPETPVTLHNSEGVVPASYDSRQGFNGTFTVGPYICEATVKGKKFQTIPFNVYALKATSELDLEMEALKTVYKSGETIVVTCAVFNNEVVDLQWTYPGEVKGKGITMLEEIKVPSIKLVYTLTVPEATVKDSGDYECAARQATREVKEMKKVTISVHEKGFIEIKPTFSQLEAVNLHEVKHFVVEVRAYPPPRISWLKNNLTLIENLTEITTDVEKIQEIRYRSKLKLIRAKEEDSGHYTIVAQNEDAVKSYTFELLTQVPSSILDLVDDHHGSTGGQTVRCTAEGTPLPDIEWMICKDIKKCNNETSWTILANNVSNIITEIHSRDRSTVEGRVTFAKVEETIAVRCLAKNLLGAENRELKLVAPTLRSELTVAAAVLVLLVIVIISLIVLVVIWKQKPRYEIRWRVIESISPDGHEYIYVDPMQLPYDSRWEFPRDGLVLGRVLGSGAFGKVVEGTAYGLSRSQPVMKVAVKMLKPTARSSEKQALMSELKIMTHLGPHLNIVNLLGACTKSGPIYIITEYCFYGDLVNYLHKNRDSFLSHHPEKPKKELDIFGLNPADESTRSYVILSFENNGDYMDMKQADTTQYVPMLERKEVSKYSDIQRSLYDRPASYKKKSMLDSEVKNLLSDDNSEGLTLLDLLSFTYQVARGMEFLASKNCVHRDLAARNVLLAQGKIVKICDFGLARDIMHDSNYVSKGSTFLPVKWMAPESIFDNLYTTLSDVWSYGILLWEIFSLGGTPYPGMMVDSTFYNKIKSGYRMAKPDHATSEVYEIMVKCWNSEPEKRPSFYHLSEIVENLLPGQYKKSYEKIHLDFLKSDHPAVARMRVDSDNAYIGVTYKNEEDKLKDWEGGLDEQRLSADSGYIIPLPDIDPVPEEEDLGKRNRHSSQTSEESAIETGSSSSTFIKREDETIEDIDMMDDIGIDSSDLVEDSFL
Chain of panel of more than 300 wild-type and mutant kinases (313 kinase panel) (Homo sapiens, UniProt Q9Y463) (Q9Y463 whole entry, change not shown): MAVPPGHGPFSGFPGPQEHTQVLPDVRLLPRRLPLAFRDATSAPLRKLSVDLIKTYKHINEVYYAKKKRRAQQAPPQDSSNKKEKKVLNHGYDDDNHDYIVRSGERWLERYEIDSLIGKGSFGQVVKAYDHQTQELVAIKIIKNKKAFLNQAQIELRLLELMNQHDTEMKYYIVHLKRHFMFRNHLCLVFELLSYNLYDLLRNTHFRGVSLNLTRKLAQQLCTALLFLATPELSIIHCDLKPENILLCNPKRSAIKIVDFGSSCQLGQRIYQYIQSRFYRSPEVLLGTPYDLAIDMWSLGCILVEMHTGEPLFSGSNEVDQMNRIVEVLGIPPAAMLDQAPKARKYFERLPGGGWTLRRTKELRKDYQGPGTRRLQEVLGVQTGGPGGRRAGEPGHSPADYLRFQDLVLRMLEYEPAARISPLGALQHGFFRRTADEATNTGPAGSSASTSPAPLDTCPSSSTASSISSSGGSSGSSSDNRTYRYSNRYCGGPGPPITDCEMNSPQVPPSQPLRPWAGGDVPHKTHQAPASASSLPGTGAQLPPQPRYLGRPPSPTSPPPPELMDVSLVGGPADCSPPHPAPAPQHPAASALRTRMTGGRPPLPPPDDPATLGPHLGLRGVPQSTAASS
Chain of panel of more than 300 wild-type and mutant kinases (313 kinase panel) (Homo sapiens, UniProt P54764) (P54764 20-986, change not shown): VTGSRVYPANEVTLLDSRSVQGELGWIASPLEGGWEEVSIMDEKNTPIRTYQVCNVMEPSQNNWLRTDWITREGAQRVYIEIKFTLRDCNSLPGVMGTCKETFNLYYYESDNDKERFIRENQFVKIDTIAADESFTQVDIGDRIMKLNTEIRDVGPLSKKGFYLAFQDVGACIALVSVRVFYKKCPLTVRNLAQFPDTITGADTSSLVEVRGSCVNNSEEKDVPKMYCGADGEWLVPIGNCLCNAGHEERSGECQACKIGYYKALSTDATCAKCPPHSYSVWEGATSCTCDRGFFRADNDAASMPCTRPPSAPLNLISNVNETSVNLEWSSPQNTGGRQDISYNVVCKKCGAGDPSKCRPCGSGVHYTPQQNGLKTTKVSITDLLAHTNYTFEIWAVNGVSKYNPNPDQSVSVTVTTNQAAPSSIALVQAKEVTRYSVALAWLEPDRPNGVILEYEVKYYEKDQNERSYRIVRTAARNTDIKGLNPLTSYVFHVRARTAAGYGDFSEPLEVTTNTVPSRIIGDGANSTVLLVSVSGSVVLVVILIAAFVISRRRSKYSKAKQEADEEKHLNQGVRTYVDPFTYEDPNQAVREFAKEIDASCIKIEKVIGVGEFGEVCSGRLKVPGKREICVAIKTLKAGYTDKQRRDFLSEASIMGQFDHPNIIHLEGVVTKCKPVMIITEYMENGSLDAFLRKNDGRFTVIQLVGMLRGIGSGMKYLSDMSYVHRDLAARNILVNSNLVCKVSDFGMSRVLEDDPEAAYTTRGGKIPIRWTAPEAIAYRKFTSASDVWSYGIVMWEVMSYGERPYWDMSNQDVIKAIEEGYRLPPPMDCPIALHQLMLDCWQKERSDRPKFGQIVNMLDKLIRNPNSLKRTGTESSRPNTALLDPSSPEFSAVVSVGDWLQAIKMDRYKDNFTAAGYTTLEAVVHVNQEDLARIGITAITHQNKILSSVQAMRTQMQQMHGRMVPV

CCN(CC)CCNC(=O)c1c(C)[nH]c(/C=C2\C(=O)Nc3ccc(F)cc32)c1C [sunitinib]
%-inhibition of TRKA [1]: 98%
%-inhibition of Erk5 [2]: 22%
%-inhibition of IRAK4 ([3]; kinase IRAK4, compound at 1 μM): 48%
%-inhibition of RON [4]: 22%
%-inhibition of FLT1 [5]: 98%

N#CC[C@H](C1CCCC1)n1cc(-c2ncnc3[nH]ccc23)cn1 [ruxolitinib]
%-inhibition of EPHA1 [6]: 43%
%-inhibition of TRKA [1]: 92%
%-inhibition, AMPKα1/β1/γ1 [7]: 2.17%
%-inhibition of Erk5 [2]: 6%
%-inhibition of PDGFRα [8]: 35%
%-inhibition of RSK2 ([9]; kinase RSK2, 1 μM): 9%
%-inhibition of IRAK4 ([3]; 1 µM): -3.69%
%-inhibition of DYRK1B [10]: 8%
%-inhibition of LYNa [11]: 13%
%-inhibition of RON [4]: -5%
%-inhibition of EPHA4 [12]: 12%
%-inhibition of FLT1 [5]: 11%

COc1cc2nccc(Oc3ccc(NC(=O)C4(C(=O)Nc5ccc(F)cc5)CC4)cc3)c2cc1OC [cabozantinib]
%-inhibition of EPHA1 [6]: 84%
%-inhibition of TRKA [1]: 100%
%-inhibition, AMPKα1/β1/γ1 [7]: -1%
%-inhibition of Erk5 [2]: -2%
%-inhibition of PDGFRα [8]: 100%
%-inhibition of RSK2 ([9]; kinase RSK2, 1 μM): -3.61%
%-inhibition of IRAK4 ([3]; kinase IRAK4, compound at 1 μM): -4%
%-inhibition of DYRK1B [10]: -5%
%-inhibition of LYNa [11]: 100%
%-inhibition of RON [4]: 99%
%-inhibition of EPHA4 [12]: 97%
%-inhibition of FLT1 [5]: 99%

C[C@@H](Oc1cc(-c2cnn(C3CCNCC3)c2)cnc1N)c1c(Cl)ccc(F)c1Cl [crizotinib]
%-inhibition of EPHA1 [6]: 97%
%-inhibition of TRKA [1]: 103%
%-inhibition, AMPKα1/β1/γ1 [7]: 16%
%-inhibition of Erk5 [2]: 45%
%-inhibition of PDGFRα [8]: 49%
%-inhibition of RSK2 ([9]; kinase RSK2, 1 μM): 0.217%
%-inhibition of IRAK4 ([3]; kinase IRAK4, compound at 1 μM): 8%
%-inhibition of DYRK1B [10]: -3%
%-inhibition of LYNa [11]: 42%
%-inhibition of EPHA4 [12]: 58%
%-inhibition of FLT1 [5]: 53%

COc1cc2c(Nc3ccc(Br)cc3F)ncnc2cc1OCC1CCN(C)CC1 [vandetanib]
%-inhibition of EPHA1 [6]: 99%
%-inhibition of TRKA [1]: 46%
%-inhibition, AMPKα1/β1/γ1 [7]: 9%
%-inhibition of Erk5 [2]: 9%
%-inhibition of PDGFRα [8]: 101%
%-inhibition of RSK2 ([9]; kinase RSK2, 1 μM): 5.7%
%-inhibition of DYRK1B [10]: -2.71%
%-inhibition of LYNa [11]: 93%

Cc1ccc(C(=O)Nc2ccc(CN3CCN(C)CC3)c(C(F)(F)F)c2)cc1C#Cc1cnc2cccnn12 [ponatinib]
%-inhibition of EPHA1 [6]: 97%
%-inhibition of TRKA [1]: 101%
%-inhibition of RET [13]: 102%
%-inhibition, AMPKα1/β1/γ1 [7]: 46%
%-inhibition of Erk5 [2]: 3.45%
%-inhibition of PDGFRα [8]: 103%
%-inhibition of RSK2 ([9]; kinase RSK2, 1 μM): 30%
%-inhibition of IRAK4 ([3]; kinase IRAK4, compound at 1 μM): 29%
%-inhibition of DYRK1B [10]: 2%
%-inhibition of LYNa [11]: 100%
%-inhibition of RON [4]: 39%
%-inhibition of FLT1 [5]: 101%

Cc1ccc(Nc2nccc(N(C)c3ccc4c(C)n(C)nc4c3)n2)cc1S(N)(=O)=O [pazopanib]
%-inhibition of EPHA1 [6]: 54%
%-inhibition, AMPKα1/β1/γ1 [7]: -0.748%
%-inhibition of Erk5 [2]: 16%
%-inhibition of RSK2 ([9]; kinase RSK2, 1 μM): 9%
%-inhibition of IRAK4 ([3]; kinase IRAK4, compound at 1 μM): -0.622%
%-inhibition of DYRK1B [10]: -3%
%-inhibition of LYNa [11]: 84%
%-inhibition of RON [4]: 13%
%-inhibition of EPHA4 [12]: 22%
%-inhibition of FLT1 [5]: 100%

Cc1nc(Nc2ncc(C(=O)Nc3c(C)cccc3Cl)s2)cc(N2CCN(CCO)CC2)n1 [dasatinib]
%-inhibition of EPHA1 [6]: 101%
%-inhibition of Erk5 [2]: 5%

COc1cc(Nc2c(C#N)cnc3cc(OCCCN4CCN(C)CC4)c(OC)cc23)c(Cl)cc1Cl [bosutinib]
%-inhibition of EPHA1 [6]: 3%
%-inhibition of TRKA [1]: 88%
%-inhibition of RET [13]: 95%
%-inhibition, AMPKα1/β1/γ1 [7]: 9%
%-inhibition of Erk5 [2]: 3.35%
%-inhibition of PDGFRα [8]: 77%
%-inhibition of RSK2 ([9]; 1 µM): 41%
%-inhibition of IRAK4 ([3]; kinase IRAK4, compound at 1 μM): 27%
%-inhibition of DYRK1B [10]: -5%
%-inhibition of LYNa [11]: 93%
